Consider one compound from US20220088002A1, “METHOD AGAINST CORONAVIRUS INFECTION WITH QUINOLINE COMPOUND” (CHANG GUNG UNIVERSITY, priority 2020, published 2022).

By EC50 is commonly meant the concentration at which the effect is half-maximal. Low values mean a more potent agent, high ones a less potent agent.

In one test the test system is HcoV-229E. Briefly: Effect against HCoV-229E in Vero E6 cells (MTT cell viability). It counts as cell-based, human coronavirus 229E. The method, then:
Vero E6 cells were divided into 6 groups, including one normal control group, one pathological control group, and four experimental groups (i.e., experimental groups 1 to 4). Each group of the Vero E6 cells was incubated in a respective well of a 96-well culture plate containing 100 μL of E2 medium at 2×10^4 cells/well, followed by cultivation in an incubator (37° C., 5% CO2) for 24 hours. Afterwards, the culture medium in each well was removed, and the cells of the experimental groups 1 to 4 were pretreated with 6-bromo-2-[1-(2,5-dimethylphenyl)-5-methyl-1H-pyrazol-4-yl]-quinoline-4-carboxylic acid (i.e., HP520-3) (Cat. No. Molport-020-176-277, Molport Inc.) respectively at concentrations of 39 nM, 78 nM, 156 nM, and 312 nM, followed by adding 150 μL of the HcoV-229E solution prepared in section 2 of General Experimental Materials. […]
Each group was cultivated in an incubator (37° C., 5% CO2) for 96 hours. […] After cultivation in an incubator (37° C., 5% CO2) for 2 hours, the respective resultant cell culture was added with 150 μL of dimethyl sulfoxide (DMSO), followed by subjecting the mixture thus obtained to determination of absorbance at a wavelength of 590 nm (OD590) by an ELISA reader.
The cell viability rate (%) was calculated using the following Equation (I): […]

In test [1] the test system is SARS-CoV-2. Briefly: Viral plaque reduction assay. It counts as cell-based. The note with it: SARS-CoV-2-infected Vero E6 cells (m.o.i. 0.01), 1 μM and 10 μM, 72 hours; versus pathological control group.
Test [2] deals with SARS-CoV-2. The format is cell-based. The note with it: Vero E6 cells pretreated at 0.3125 μM, 1.25 μM, and 5 μM, m.o.i. 0.01; normalized against GAPDH; versus pathological control group.

`Cc1ccc(C)c(-n2ncc(-c3cc(C(=O)O)c4cc(Br)ccc4n3)c2C)c1` [HP520-3, 6-bromo-2-[1-(2,5-dimethylphenyl)-5-methyl-1H-pyrazol-4-yl]-quinoline-4-carboxylic acid]: in the test with HcoV-229E (HcoV-229E-infected Vero E6 cells pretreated at 39 nM, 78 nM, 156 nM, and 312 nM, versus pathological control group), the cell viability rate entry is recorded as “significantly higher than that determined in the pathological control group”. The compound also yielded an EC50 in the test on HcoV-229E (Human coronavirus 229E, Vero C1008, HcoV-229E-infected Vero E6 cells, 96 hours, MTT, n=3, mean±SD) of 0.141 ± 0.0155 µM. Also, the “number of viral plaques” value in the test on SARS-CoV-2 [1] is reported as “lower than that determined in the pathological control group”. In addition, the “relative RNA expression level of E gene of SARS-CoV-2” value in the test with SARS-CoV-2 [2] was “significantly lower than that of the pathological control group”.
